Assay results from the supplement of paper PMC10307832.

Tests used:
Test in all cases: relative viability (nuclei count vs DMSO), 5 days (fraction); higher = more cells survive
RAF265 + Luminespib = compound: Cn1c(Nc2ccc(C(F)(F)F)cc2)nc2cc(Oc3ccnc(-c4ncc(C(F)(F)F)[nH]4)c3)ccc21 [RAF265] + CCNC(=O)c1noc(-c2cc(C(C)C)c(O)cc2O)c1-c1ccc(CN2CCOCC2)cc1 [Luminespib] (partner 0.01 µM)
How it was run: (§1)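 Lung cancer cell lines, seeded in 1536-well plates, were treated the following day by pin tool with a single drug or with five library-drug doses (not always all listed) in √10 steps on top of a fixed anchor-drug dose. Cells were fixed and nuclei stained in one step after 5 days, and nuclei were counted. Relative viability is the nuclei count for treated wells divided by that for vehicle wells, reported as medians of duplicate plates.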

RAF265 + Bortezomib = compound: Cn1c(Nc2ccc(C(F)(F)F)cc2)nc2cc(Oc3ccnc(-c4ncc(C(F)(F)F)[nH]4)c3)ccc21 [RAF265] + CC(C)C[C@H](NC(=O)[C@H](Cc1ccccc1)NC(=O)c1cnccn1)B(O)O [Bortezomib] (partner 0.002 µM)
How it was run: as §1

Doramapimod + Foretinib = compound: Cc1ccc(-n2nc(C(C)(C)C)cc2NC(=O)Nc2ccc(OCCN3CCOCC3)c3ccccc23)cc1 [Doramapimod] + COc1cc2c(Oc3ccc(NC(=O)C4(C(=O)Nc5ccc(F)cc5)CC4)cc3F)ccnc2cc1OCCCN1CCOCC1 [Foretinib] (partner 0.25 µM)
How it was run: as §1

IPA-3 + Foretinib = compound: C1=CC=C2C(=C1)C=CC(=C2SSC3=C(C=CC4=CC=CC=C43)O)O [IPA-3] + COc1cc2c(Oc3ccc(NC(=O)C4(C(=O)Nc5ccc(F)cc5)CC4)cc3F)ccnc2cc1OCCCN1CCOCC1 [Foretinib] (partner 0.25 µM)
How it was run: as §1

| Cell Line | relative viability (RAF265 + Luminespib; first compound 0.01 µM) | relative viability (RAF265 + Luminespib; first compound 0.03162 µM) | relative viability (RAF265 + Luminespib; first compound 0.1 µM) | relative viability (RAF265 + Luminespib; first compound 0.3162 µM) | relative viability (RAF265 + Luminespib; first compound 1 µM) | relative viability (RAF265 + Bortezomib; first compound 0.01 µM) | relative viability (RAF265 + Bortezomib; first compound 0.03162 µM) | relative viability (RAF265 + Bortezomib; first compound 0.1 µM) | relative viability (RAF265 + Bortezomib; first compound 0.3162 µM) | relative viability (RAF265 + Bortezomib; first compound 1 µM) | relative viability (Doramapimod + Foretinib; first compound 0.02 µM) | relative viability (Doramapimod + Foretinib; first compound 0.06325 µM) | relative viability (Doramapimod + Foretinib; first compound 0.2 µM) | relative viability (Doramapimod + Foretinib; first compound 0.6325 µM) | relative viability (Doramapimod + Foretinib; first compound 2 µM) | relative viability (IPA-3 + Foretinib; first compound 0.2 µM) | relative viability (IPA-3 + Foretinib; first compound 0.6325 µM) | relative viability (IPA-3 + Foretinib; first compound 2 µM) | relative viability (IPA-3 + Foretinib; first compound 6.325 µM) | relative viability (IPA-3 + Foretinib; first compound 20 µM) |
| --- | --- | --- | --- | --- | --- | --- | --- | --- | --- | --- | --- | --- | --- | --- | --- | --- | --- | --- | --- | --- |
| SK-LU-1 | 0.203 | 0.182 | 0.177 | 0.185 | 0.176 | 1.18 | 1.08 | 1.09 | 0.453 | 0.512 | 0.805 | 0.82 | 0.847 | 0.873 | 0.759 | 1.01 | 0.78 | 0.908 | 0.828 | 0.911 |
| A-427 | 0.691 | 0.821 | 1.16 | 0.631 | 0.226 | 0.98 | 0.867 | 1 | 1.1 | 0.494 | 1.02 | 1.15 | 1.12 | – | 0.997 | 1.1 | 1.08 | 1.11 | 1.06 | 1.14 |
| SW 1573 | 0.571 | 0.179 | 0.161 | 0.131 | 0.149 | 1.38 | 0.91 | 1.17 | 0.873 | 0.514 | 0.862 | 0.769 | 0.749 | 0.836 | 0.663 | 1.06 | 0.83 | 0.806 | 0.808 | 0.893 |
| NCI-H322M | 0.868 | 0.722 | 0.545 | 0.305 | 0.304 | 1.3 | 1.32 | 1.14 | 0.55 | 0.258 | 1.11 | 0.913 | 1.08 | 1.05 | 1.05 | 1.05 | 0.961 | 1.15 | 1.04 | 1.13 |
| ABC-1 | 0.656 | 0.823 | 0.75 | 0.519 | 0.265 | 0.308 | 0.321 | 0.278 | 0.284 | 0.303 | 1.39 | 1.11 | 1.05 | 0.919 | 0.881 | 1.06 | 1.13 | 1 | 1.17 | 1.19 |
| NCI-H2023 | 0.802 | 0.78 | 0.674 | 0.837 | 0.454 | 1.07 | 1.08 | 1.07 | 0.786 | 0.794 | 0.833 | 0.732 | 0.691 | 0.823 | 0.605 | 0.856 | 0.666 | 0.995 | 0.853 | 1.1 |
| NCI-H596 | 1.11 | 1.06 | 0.962 | 1.01 | 0.625 | 1.18 | 0.987 | 1.08 | 0.85 | 0.743 | 0.907 | 0.766 | 1.01 | 0.782 | 0.855 | 0.691 | 0.945 | 0.923 | 0.881 | 1.06 |
| NCI-H2405 | 0.638 | 0.812 | 0.722 | 0.476 | 0.548 | 0.985 | 0.898 | 0.995 | 0.975 | 0.422 | 1.11 | 1.01 | 1.04 | 1.14 | 0.998 | 1.12 | 1.07 | 1.07 | 1.07 | 1.06 |
| LCLC-103H | 0.798 | 0.804 | 0.789 | 0.739 | 0.39 | 1.02 | 1.07 | 0.994 | 1 | 0.627 | 0.627 | 0.691 | 0.598 | 0.857 | 0.73 | 0.908 | 0.862 | 0.756 | 0.725 | 0.775 |
| NCI-H460 | 0.0219 | 0.0359 | 0.0291 | 0.0265 | 0.0248 | 1.15 | 1.22 | 1.09 | – | 0.742 | 1.08 | 1.04 | 1.02 | 1.17 | 0.973 | 1.12 | 0.924 | 0.851 | 0.929 | 0.931 |
| NCI-H1755 | 0.627 | 0.45 | 0.351 | 0.262 | 0.398 | 1.01 | 0.921 | 0.892 | 0.842 | 0.536 | 0.984 | 0.928 | 0.93 | 0.892 | 0.866 | 0.923 | 0.884 | 0.879 | 0.85 | 0.952 |
| NCI-H1734 | 0.227 | 0.189 | 0.178 | 0.17 | 0.17 | 0.937 | 0.724 | 0.696 | 0.7 | 0.469 | 0.808 | 0.805 | 0.802 | 0.767 | 0.598 | 0.972 | 0.803 | 0.845 | 0.92 | 0.934 |
| EPLC-272H | 0.169 | 0.224 | 0.333 | 0.138 | 0.177 | 0.973 | 0.956 | 0.818 | 0.808 | 0.392 | 0.776 | 0.658 | 0.788 | 0.934 | 0.57 | 0.901 | 0.639 | 0.655 | 0.795 | 0.857 |
| NCI-H2126 | 0.918 | 0.87 | 0.908 | 0.628 | 0.654 | 1.05 | 1.1 | 1.13 | 1.14 | 0.926 | 1.21 | 0.988 | 1.14 | 1.34 | 1.2 | 1.21 | 1.23 | 0.904 | 1.17 | 1.18 |
